The record followed here is PMC8298602, “14-3-3-protein regulates Nedd4-2 by modulating interactions between HECT and WW domains” (Communications Biology, 2021).

In test [1] the test system is Nedd4-2^186–975. In words: auto-ubiquitination (Ub chain formation) assay, immunoblot. Type of test: biochemical, human. To be noted: for Difference (no 14-3-3 minus with 14-3-3): normalized means; for effect on auto-ubiquitination of Nedd4-2^186–975 (in words): Nedd4-2^186–975 with 14-3-3, 1:2 molar ratio, 30 °C. Here is the method:
For in vitro ubiquitination assays, 5 µg of human Ub, 50 ng of E1 (mouse Uba1), 200 ng of E2 (mouse Ube2d2) and 500 ng of E3 (phosphorylated Nedd4-2^186–975) were incubated in 30 µl of the reaction mixture in a buffer containing 50 mM Tris pH 7.5, 2 mM ATP, 5 mM MgCl2 and 2 mM DTT and incubated for 5, 10 and 15 min at 30 °C. The reactions were stopped by adding 5 × SDS-PAGE loading buffer (250 mM Tris pH 6.8, 50% glycerol, 500 mM DTT and 10% SDS) and incubating at 95 °C for 3 minutes to denaturate the samples. For reactions with 14-3-3η, Nedd4-2^186–975 was mixed with 14-3-3η in a 1:2 molar ratio and incubated for 30 minutes on ice before starting the reaction. In addition, 20 µl of reaction was separated by conventional SDS-PAGE on a 10% acrylamide gel and electro-blotted against a PVDF membrane in 20 mM Tris pH 7.5, 154 mM glycin and 10% methanol buffer overnight at 4 °C. Rabbit anti-Ub polyclonal antibody (Enzo) and anti-rabbit IgG, HRP-linked Antibody (Cell Signaling Technology) were used to visualize the transferred polyubiquitin chains. Chemiluminescence was induced by ECL and detected using Fusion Solo S (Vilber). The detected bands of E3-Ub were quantitated using the Image Lab software (Bio-Rad).
(§1) Results from the FP assay (Fig. 4) and immunoblot (Supplementary Fig. S1) are represented as means ± SD from three replicates as indicated in the figure legend. Statistical analysis for the data from immunoblot were performed using Graph-Pad Prism 8.4. Student’s t-test was used for comparison of relative changes of samples with and without 14-3-3η at selected timepoints (ns, non-significant P > 0.05; *, P < 0.05).
Supplementary Fig. S1. 14-3-3 slows down the auto-ubiquitination of Nedd4- 2186-975. a Purity and integrity of the samples used in the Ub chain formation assay. The samples were resolved by 10% Tris/Glycine SDS-PAGE and stained with Coomassie G-250. b Ubiquitin (Ub) chain formation assay with and without 14-3-3ε and the representative immunoblot of Ub. Black rectangles denote the borders of the sample zones that were quantified. The presence of ubiquitinated Nedd4-2 in the quantified zones was confirmed by LC-MS analysis. c Relative abundances of ubiquitinated Nedd4-2186-975 with and without 14-3-3η based on the immunoblot of Ub. Error bars represent the standard deviation of three independent experiments. Results show the data distribution. Asterisks represent significant differences according to unpaired Student’s t-tests comparing relative change between samples without and with 14-3-3ε at selected timepoints (ns, non-significant P > 0.05; *, P < 0.05).
(1 picture or pasted object on this page, not shown here)

For test [2], the system named is all human 14-3-3 protein isoforms. In words: fluorescence polarization (FP), all seven 14-3-3 isoforms (results in words). Type of test: binding. To be noted: 50 nM FITC-labelled peptide, 14-3-3 isoforms from 80 μM. Here is the method:
Fig. 4 14-3-3 isoform binding specificity of Nedd4-2 phosphomotifs. Binding of FITC-labeled phosphopeptides with 14-3-3 binding motifs of Nedd4-2 (pSer^342, pThr^367 or pSer^448) to all human 14-3-3 isoforms was characterized by FP titrations. The binding affinities of these peptides were determined by fitting FP data to a one-site binding model. The corresponding sequences of these peptides are shown at the top. Background polarization was subtracted from all values. Results are expressed as mean ± SD (n = 3). Error bars are not visible if they are smaller than the size of the symbol.
The FP assay was performed using a CLARIOstar microplate reader (BMG Labtech, […]) on 384-well black low-volume flat-bottom plates (Corning, New York, USA) in a buffer containing 10 mM HEPES (pH 7.4), 150 mM NaCl, 0.1% (v/v) Tween 20 and 0.1% (w/v) BSA. […] The excitation and emission wavelengths were 482 nm and 530 nm, respectively. The KD values were determined as the mean of three independent measurements using GraphPad Prism version 8.0.1 for Windows, GraphPad Software, La Jolla California USA, www.graphpad.com.
as §1

For “14-3-3η: 14-3-3 protein eta isoform, stable dimer, known Nedd4-2 binding partner”, the “Difference (no 14-3-3 minus with 14-3-3)” value in test [1] (5 min) is reported as 0.1757; in test [1] (10 min), 0.2602; in test [1] (15 min), 0.2943. For the same substance, the “relative abundance of ubiquitinated Nedd4-2^186–975” value (“relative abundance” below) came to 0.8243 in test [1] (5 min, with 14-3-3, mean of n = 3, normalized (mean without 14-3-3 = 1), listed as 14-3-3); 0.8243 in test [1] (5 min, with 14-3-3, mean of n = 3, normalized (mean without 14-3-3 = 1), listed as 1433); 0.8139 in test [1] (5 min, with 14-3-3, replicate 1, normalized (mean without 14-3-3 = 1)); 1.075 in test [1] (5 min, with 14-3-3, replicate 2, normalized (mean without 14-3-3 = 1)); 0.5843 in test [1] (5 min, with 14-3-3, replicate 3, normalized (mean without 14-3-3 = 1)); 0.7398 in test [1] (10 min, with 14-3-3, mean of n = 3, normalized (mean without 14-3-3 = 1), listed as 14-3-3). Further, the “relative abundance” value in test [1] (10 min, with 14-3-3, mean of n = 3, normalized (mean without 14-3-3 = 1), listed as 1433) came out at 0.7398; in test [1] (10 min, with 14-3-3, replicate 1, normalized (mean without 14-3-3 = 1)), 0.713; in test [1] (10 min, with 14-3-3, replicate 2, normalized (mean without 14-3-3 = 1)), 0.8702; in test [1] (10 min, with 14-3-3, replicate 3, normalized (mean without 14-3-3 = 1)), 0.6363; in test [1] (15 min, with 14-3-3, mean of n = 3, normalized (mean without 14-3-3 = 1), listed as 14-3-3) it was 0.7057; in test [1] (15 min, with 14-3-3, mean of n = 3, normalized (mean without 14-3-3 = 1), listed as 1433), 0.7057. Moreover, the “relative abundance” value in test [1] (15 min, with 14-3-3, replicate 1, normalized (mean without 14-3-3 = 1)) came to 0.7206; in test [1] (15 min, with 14-3-3, replicate 2, normalized (mean without 14-3-3 = 1)) it was 0.776; in test [1] (15 min, with 14-3-3, replicate 3, normalized (mean without 14-3-3 = 1)), 0.6205. For the same substance, the “abundance of ubiquitinated Nedd4-2^186–975” value was 1.509 in test [1] (5 min, with 14-3-3, mean of n = 3, not normalized); 1.49 in test [1] (5 min, with 14-3-3, replicate 1, not normalized); 1.967 in test [1] (5 min, with 14-3-3, replicate 2, not normalized); 1.069 in test [1] (5 min, with 14-3-3, replicate 3, not normalized); 2.393 in test [1] (10 min, with 14-3-3, mean of n = 3, not normalized); 2.306 in test [1] (10 min, with 14-3-3, replicate 1, not normalized). For the same substance, the “abundance of ubiquitinated Nedd4-2^186–975” value in test [1] (10 min, with 14-3-3, replicate 2, not normalized) turned out to be 2.814; in test [1] (10 min, with 14-3-3, replicate 3, not normalized) it was 2.058; in test [1] (15 min, with 14-3-3, mean of n = 3, not normalized), 3.153; in test [1] (15 min, with 14-3-3, replicate 1, not normalized), 3.22; in test [1] (15 min, with 14-3-3, replicate 2, not normalized), 3.467; in test [1] (15 min, with 14-3-3, replicate 3, not normalized), 2.772. Moreover, the “effect on auto-ubiquitination of Nedd4-2^186–975 (in words)” value in test [1] is given as “reduced”; in test [1] (listed as 14-3-3), “slows down”.
Turning to FITC-ARSSpTVTGGE [pep-T367], the “binding to 14-3-3 isoforms (in words)” value in test [2] is “very weak, to all 14-3-3 isoforms except ε and σ”.
For the substance FITC-LRSCpSVTDAV [pep-S448], the “binding to 14-3-3 isoforms (in words)” value in test [2] is recorded as “binds to all 14-3-3 isoforms in the low micromolar range”.
The same measure, in the same setting: the result for FITC-PRSLpSSPTVT [pep-S342] reads “measurable binding affinity only to 14-3-3σ”.
